Tests used:
[1] = tested on: human foreskin fibroblasts (HFFs); settings: Buffered DMEM, 7 d
Experimental: (§6) For the cell effect in absence of virus assay, ARPE-19 cells or HFFs were seeded into 96-well plates and grown for 72 h as described above. Cells were treated with Test Composition in either unbuffered or buffered medium ranging from 1 μM to 100 mM (1:10 dilution). Cidofovir was tested in a range from 0.001 to 100 μM (1:10 dilution). Ganciclovir was tested in a range from 0.002 to 200 μM (1:10 dilution). ARPE-19 cells were treated with Test Composition or Cidofovir for 72 h, then cells were stained with Neutral Red dye and absorbance was measured at 540 nm. HFFs were treated with original Test Composition or Ganciclovir for 7 d, then cells were stained with Neutral Red dye and absorbance was measured at 540 nm.

[2] = in vitro; settings: human, human foreskin fibroblasts (HFFs)
Experimental: as §6

[3] = tested on: HCMV-eGFP-fLuc; test: HCMV bioluminescence dose-response assay in HFFs; format: cell-based, human cytomegalovirus; settings: unbuffered and buffered medium
Experimental: (§1) VZV- or HCMV-infected cells were measured by bioluminescence imagining in the efficacy or dose-response assay. Assays were performed as previously described, with a few modifications. […] Next, cells were infected at a MOI of approximately 0.05 with either VZV-ORF57-Luc or HCMV-eGFP-fLuc, both which expresses firefly luciferase, in either standard DMEM (10% FBS) or DMEM (10% FBS) buffered with 3.024 g/L sodium bicarbonate.
(§2) Antiviral Test Compositions were prepared in the two media, added at the time of infection, and remained for the duration of the assay. VZV cultures were scanned at 72 h post-infection, and HCMV cultures were scanned at 7 days post-infection. Each plate contained untreated wells in each media condition (unbuffered or buffered) as a baseline. Test Composition in unbuffered medium, Test Composition in buffered medium, cidofovir positive control (CDV; for VZV) or ganciclovir positive control (GCV; for HCMV) in unbuffered medium, and CDV (for VZV) or GCV (for HCMV) in buffered medium. All graphs, EC50, and CC50 calculations were performed using GraphPad. Test Composition concentrations ranged from 3.2 μM to 50 mM in a 1:5 dilution series based on Lysine concentrations. Cidofovir concentrations ranged from 0.00128 to 20 μM in a 1:5 dilution series. Ganciclovir concentrations ranged from 0.0064 to 100 μM in a 1:5 dilution series.

[4] = tested on: HSV-1 R8411; test: microbe, parasite or virus in culture; format: cell-based, herpes simplex virus 1; settings: for efficacy against HSV-1 (in words): ARPE-19, 24 h post-infection; for EC50: Human alphaherpesvirus 1, ARPE-19, 24 h, 24 h; for SI (CC50/EC50): Table 10, HSV1, buffered medium
Experimental: (§3) Next, cells were infected at a MOI of 0.05 with either HSV-1 R8411 or HSV-2-Luc, both which expresses firefly luciferase, in either standard DMEM medium (10% FBS) or standard DMEM medium (10% FBS) buffered with 3.024 g/L sodium bicarbonate. Treatments were prepared in the different medium conditions and added at the time of infection. All assays were imaged at 24 h post-infection and/or treatment. The compounds tested for this experiment included: Test Composition in unbuffered medium, Test Composition in buffered medium, acyclovir in unbuffered medium and acyclovir in buffered medium. All graphs, EC50, CC50, and CC50/EC50 calculations were performed using GraphPad software based on Lysine equivalent concentrations.
(§4) HSV-1 or HSV-2 infected cells were measured by bioluminescence imagining in the dose-response assay. Each plate contained a set of untreated wells in each media condition (unbuffered or buffered) to be used as baseline. Test composition concentrations ranged from 3.2 μM to 50 mM in a 1:5 dilution series. Acyclovir concentrations ranged from 0.00256 to 40 μM in a 1:5 dilution series.
(§5) Assays were performed as previously described. […] Next, cells were infected at a MOI of approximately 0.05 with either HSV-1 R8411 or HSV-2 MS-Luciferase, both which expresses firefly luciferase, in DMEM (10% FBS) buffered with 3.024 g/L sodium bicarbonate. Antiviral compounds were prepared in the buffered media, added at the time of infection, and remained for the duration of the assay. Both HSV1 and HSV2 cultures were scanned at 24 h post-infection. Each plate contained untreated wells as a baseline for comparison. The solutions evaluated included original Test Composition and various sets of its components, as well as acyclovir (ACV; control). The table below includes a breakdown of all the different component formulations. Graphs were produced, EC50, and CC50 calculations were performed using GraphPad. Concentrations for Test Composition and its components ranged from 3.2 μM to 50 mM in a 1:5 dilution series. Acyclovir concentrations ranged from 0.00256 to 40 μM in a 1:5 dilution series.

[5] = in vitro; format: cell-based; settings: human, Table 10 HSV1 half, ARPE-19, buffered medium
Experimental: as §5

[6] = tested on: HSV-2-Luc; test: microbe, parasite or virus in culture; format: cell-based, herpes simplex virus 2; settings: for efficacy against HSV-2 (in words): ARPE-19, 24 h post-infection; for EC50: Human alphaherpesvirus 2, ARPE-19, 24 h, 24 h; for SI (CC50/EC50): Table 10, HSV2, buffered medium
Experimental: as §3, §4, §5

[7] = tested on: VZV-ORF57-Luc; test: microbe, parasite or virus in culture; format: cell-based, varicella zoster virus; settings: for EC50: Human alphaherpesvirus 3, ARPE-19, 72 h, 72 h
Experimental: as §1, §2

[8] = tested on: ARPE-19 cells; test: Cell effect in absence of virus assay, ARPE-19 cells, 72 h, Neutral Red; format: cell-based; settings: ARPE-19, Buffered DMEM
[9] = as above; format: cell-based; settings: human, ARPE-19 cells, ARPE-19, Unbuffered DMEM
[10] = adults; cited from earlier work
[11] = in vivo; cited from earlier work

In the case of Nc1nc(O)c2ncn(COC(CO)CO)c2n1 [Ganciclovir, ganciclovir], the CC50 [1] is reported as greater than 200 µM, the CC50 at 7 d [2] is reported as greater than 200 µM and the “efficacy against HCMV (in words)” value [3] is reported as “not effective”.
For Nc1nc2c(ncn2COCCO)c(=O)[nH]1 [Acyclovir, acyclovir], the “efficacy against HSV-1 (in words)” value [4] was “worked”, the “efficacy against HSV-1 (in words)” value ([4]; listed as acyclovir) was “effective” and the EC50 ([4]; HSV-1, ARPE-19, Buffered DMEM (sodium bicarbonate)) was 0.156 µM. For the same molecule, the EC50 ([4]; HSV-1, ARPE-19, Unbuffered DMEM, Lysine equivalent concentration) was 0.645 µM, the EC50 ([4]; Table 10, HSV1, ARPE-19, buffered medium, curves plotted as L-lysine HCl or acyclovir concentration (uM), FIG. 5) was 0.225 µM and the “SI (CC50/EC50)” value [4] was 444.44. The CC50 at 24 h [5] was no less than 100 µM, the “efficacy against HSV-2 (in words)” value [6] was “worked” and the “efficacy against HSV-2 (in words)” value ([6]; listed as acyclovir) was “effective”. It also gave an EC50 ([6]; HSV-2, ARPE-19, Buffered DMEM) of 6.66 µM, an EC50 ([6]; HSV-2, ARPE-19, Unbuffered DMEM) of 7.89 µM and an EC50 ([6]; Table 10, HSV2, ARPE-19, buffered medium, curves plotted as L-lysine HCl or acyclovir concentration (uM), FIG. 6) of 33.1 µM. The “SI (CC50/EC50)” value [6] was 3.02.
In the case of Cl.NCCCC[C@H](N)C(=O)O [Solution 2, L-lysine monohydrochloride], the “rank of efficacy among test solutions 1-11 against HSV1” value ([4]; ARPE-19, buffered medium) is reported as “least effective”, the “SI (CC50/EC50)” value [4] is reported as 5 and the “rank of efficacy among test solutions 1-11 against HSV2” value ([6]; ARPE-19, buffered medium) is reported as “least effective”. For the same molecule, the “SI (CC50/EC50)” value [6] was 2.5.
With Nc1ccn(C[C@@H](CO)OCP(=O)(O)O)c(=O)n1 [Cidofovir, cidofovir] the “efficacy against VZV (in words)” value ([7]; ARPE-19, unbuffered and buffered medium) was “effective”, the EC50 ([7]; VZV, ARPE-19, Buffered DMEM) was 19 µM and the EC50 ([7]; VZV, ARPE-19, Unbuffered DMEM) was 1.72 µM. The “increase of EC50 in buffered medium versus unbuffered medium” value ([7]; VZV) was 10 fold, the “SI (CC50/EC50)” value ([7]; VZV, Buffered DMEM) was 5.3 and the “SI (CC50/EC50)” value ([7]; VZV, Unbuffered DMEM) was 58.2. It also gave a CC50 [8] greater than 100 µM and a CC50 at 72 h [9] greater than 100 µM.
For Cc1ncc(CO)c(CO)c1O [Vitamin B6, Pyridoxine], the intake usually safe [10] is given as “up to 200 mg per day”.
For CC(C)[C@H](N)C(=O)OCCOCn1cnc2c(=O)[nH]c(N)nc21 [Valacyclovir], the fraction eliminated renally [11] is given as 89%.
